Assay results as given in patent US9593305B2, “Differentiation of pluripotent stem cells” (Janssen Biotech, Inc., priority 2008, dated 2017).

Tests used:
[1] = test system: H1 human embryonic stem cells; test: Screen of CDK, GSK3 and TRK inhibitors with or without GDF-8, SOX17 and cell number (Example 20, Table 17); assay type: cell-based; details: Plate 1; for Cell Number, % of positive control / Sox17 Expression, % of positive control: positive control = Activin A/Wnt3a
Method: Briefly, clusters of H1 human embryonic stem cells were grown on reduced growth factor Matrigel™ (Invitrogen; Cat #356231) coated tissue culture plastic. Cells were passaged using collagenase (Invitrogen; Cat #17104-019) treatment and gentle scraping, washed to remove residual enzyme, and plated with even dispersal at a ratio of 1:1 (surface area) on reduced growth factor […]™ (BD Biosciences; Cat #356231)-coated 96-well black plates (Packard ViewPlates; PerkinElmer; Cat #6005182) using volumes of 100 μl/well. Cells were allowed to attach and then recover log phase growth over a 1 to 3 day time period, feeding daily with MEF conditioned medium supplemented with 8 ng/ml bFGF (R&D Systems; Cat #233-FB). Plates were maintained at 37° C., 5% CO2 in a humidified box throughout the duration of assay.
Screening was conducted using the compounds described in Table 16. […] Compounds were made available as 5 mM stocks in 96-well plate format, solubilized in 100% DMSO (Sigma; Cat #D2650) and stored at −80° C. The library compounds were further diluted to an intermediate concentration of 0.2 mM in 50 mM HEPES (Invitrogen; Cat #15630-080), 20% DMSO and stored at 4° C. Test conditions were performed in triplicate, feeding on alternating days over a four-day assay period. Assay was initiated by aspirating culture medium from each well followed by three washes in PBS (Invitrogen; Cat #14190) to remove residual growth factors. On the first day of assay, test volumes of 200 μl per well were added to each well using DMEM:F12 base medium (Invitrogen; Cat #11330-032) supplemented with 0.5% FCS (HyClone; Cat #SH30070.03) and 100 ng/ml GDF-8 (R&D Systems, Cat #788-G8) plus 2.5 μM compound. A parallel set of test samples were treated in an identical manner but omitting GDF-8 from the medium. On the third day of assay, test volumes of 100 μper well were added to each well using DMEM:F12 base medium supplemented with 2% FCS plus 100 ng/ml GDF-8 (R&D Systems, Cat #788-G8). […] Positive control samples contained the same base medium supplemented with FCS and 100 ng/ml recombinant human activin A (PeproTech; Cat #120-14) throughout the four day assay along with Wnt3a (20 ng/ml) addition on days 1 and 2. Negative control samples contained DMEM:F12 base medium supplemented with FCS.
(§1) At the conclusion of four-days of culture, assay plates were washed twice with PBS (Invitrogen; Cat #14190), fixed with 4% paraformaldehyde (Alexis Biochemical; Cat #ALX-350-011) at room temperature for 20 minutes, then washed three times with PBS and permeabilized with 0.5% Triton X-100 (Sigma; Cat #T8760-2) for 20 minutes at room temperature. Cells were washed again three times with PBS and blocked with 4% chicken serum (Invitrogen; Cat #16110082) in PBS for 30 minutes at room temperature. Primary antibody (goat anti-human SOX17; R&D Systems; Cat #AF1924) was diluted 1:100 in 4% chicken serum and added to each well for one hour at room temperature. Alexa Fluor 488 conjugated secondary antibody (chicken anti-goat IgG; Molecular Probes; Cat #AZ1467) was diluted 1:200 in PBS and added to each sample well after washing three times with PBS. To counterstain nuclei, 4 μg/ml Hoechst 33342 (Invitrogen; Cat #H3570) was added for ten minutes at room temperature. Plates were washed once with PBS and left in 100 μl/well PBS for imaging.
(§2) Imaging was performed using an IN Cell Analyzer 1000 (GE Healthcare) utilizing the 51008bs dichroic for cells stained with Hoechst 33342 and Alexa Fluor 488. Exposure times were optimized from positive control wells and from untreated negative control wells stained with secondary antibody alone. Images from 15 fields per well were acquired to compensate for any cell loss during the bioassay and subsequent staining procedures. Measurements for total cell number and total SOX17 intensity were obtained from each well using IN Cell Developer Toolbox 1.7 (GE Healthcare) software. […]

[2] = test system: CDK, GSK3, and/or TRK signaling pathways; test: Primary selectivity of the proprietary small molecules (Table 16); details: as listed in Table 17
Method: A subset of 14 proprietary small molecules, known to have specificity for the CDK, GSK3, and/or TRK signaling pathways were evaluated for their potential to differentiate human embryonic stem cells to cells expressing markers characteristic of the definitive endoderm lineage.

[3] = test system: H1 human embryonic stem cells; test: Primary screening: definitive endoderm differentiation in the absence of activin A, cell number and SOX17 (Example 3); assay type: cell-based; details: 2.5 μM compound, 20 ng/ml Wnt3a days 1-2, no activin A, four-day assay
Method: Briefly, clusters of H1 human embryonic stem cells were grown on reduced growth factor […]™ (Invitrogen; Cat #1356231)-coated tissue culture plastic. Cells were passaged using collagenase (Invitrogen; Cat #17104-019) treatment and gentle scraping, washed to remove residual enzyme, and plated with even dispersal at a ratio of 1:1 (surface area) on reduced growth factor […]™-coated 96-well black plates (Packard ViewPlates; PerkinElmer; Cat #6005182) using volumes of 100 μl/well. Cells were allowed to attach as clusters and then recover log phase growth over a 1 to 3 day period, feeding daily with MEF conditioned medium supplemented with 8 ng/ml bFGF (R&D Systems; Cat #233-FB). Plates were maintained at 37° C., 5% CO2 in a humidified box throughout the duration of assay.
The compounds tested were made available as 5 mM stocks in 96-well plate format, solubilized in 100% DMSO (Sigma; Cat #D2650) and stored at −80° C. The library compounds were further diluted to an intermediate concentration of 0.2 mM in 50 mM HEPES (Invitrogen; Cat #15630-080), 20% DMSO and stored at 4° C. Test conditions were performed in triplicate, feeding on alternate days over a four-day assay period. Primary screening assays were initiated by aspirating culture medium from each well followed by three washes in PBS (Invitrogen; Cat #14190) to remove residual growth factors and serum. On the first day of assay, test volumes of 200 μl per well were added back containing DMEM:F12 base medium (Invitrogen; Cat #11330-032) supplemented with 0.5% FCS (HyClone; Cat #SH30070.03) and 20 ng/ml Wnt3a (R&D Systems; Cat #1324-WN) plus 2.5 μM test compound. On the third day of assay, test volumes of 200 μl per well were added back containing DMEM:F12 base medium supplemented with 2% FCS plus 2.5 μM test compound, without Wnt3a. Positive control samples contained the same base medium supplemented with FCS, substituting 100 ng/ml recombinant human activin A (PeproTech; Cat #120-14) for the test compound throughout the four-day assay along with Wnt3a (20 ng/ml) added only on days 1 and 2. Negative control samples contained DMEM:F12 base medium supplemented with FCS, adding Wnt3a on days 1 and 2 but omitting activin A.
as §1, with “counter stain” for “counterstain”
as §2, with “software. Segmentation for the nuclei was determined based on gray-scale levels (baseline range 100-300) and nuclear size.” for “software.”

[4] = compound in combination with GDF8

Compound	Cell Number, Average Total Cell Number ([1]; compound alone, No GDF8)	Sox17 Expression, Average Total Intensity ([1]; compound alone, No GDF8)	Cell Number, % of positive control ([1]; compound alone, No GDF8)	Sox17 Expression, % of positive control ([1]; compound alone, No GDF8)	Cell Number, Average Total Cell Number [1, 4]	Sox17 Expression, Average Total Intensity [1, 4]	Cell Number, % of positive control [1, 4]	Sox17 Expression, % of positive control [1, 4]	Compound Selectivity [2]	Cell Number: % of positive control [3]	Sox17 Expression: % of positive control [3]	Sox17 Expression: Average Total Intensity [3]	Cell Number: Average Total Cell Number ([3]; positive control 100 ng/ml activin A + Wnt3a)
CN1CCC(NC(=O)c2ccc(Nc3nccc(N4CCN(C)c5ccccc54)n3)cc2)CC1 [Compound 11, 4-{[4-(4-Methyl-3,4-dihydroquinoxalin-1(2H)-yl)pyrimidin-2-yl]amino}-N-(1-methylpiperidin-4-yl)benzamide]	565	−1.1E+06	3.9 % of positive control	−0.5 % of positive control	210	−4.9E+05	1.4 % of positive control	−0.2 % of positive control	Selective for CDK				
CN(C)CCNC(=O)c1ccc(-c2cnc3ccc(NCc4cccc(Cl)c4)nn23)cc1 [Compound 57, 4-(6-{[(3-Chlorophenyl)methyl]amino}imidazo[1,2-b]pyridazin-3-yl)-N-[2-(dimethylamino)ethyl]benzamide]	1222	−7.1E+05	8.4 % of positive control	−0.3 % of positive control	2110	1.1E+07	14.6 % of positive control	4.8 % of positive control	Selective for Trk				
CC(C)(C)OC(=O)NCCc1cccc(Nc2ncnc(-c3ccnc(C#CCO)c3)n2)c1 [Compound 3, 1,1-Dimethylethyl {2-[3-({4[2-(3-hydroxyprop-1-yn-1-yl)pyridin-4-yl]-1,3,5-triazin-2-yl}amino)phenyl]ethyl}carbamate]										133.82 % of positive control	−0.73 % of positive control	−2.34E+06	14211
CN1CCCc2cccc(c2)-c2nnc([nH]2)Nc2cccc(c2)CN2CCN(CC2)C(=O)C1 [Compound 43, 21-Methyl-1,8,10,11,21,24,30-heptaazapentacyclo[22.2.2.1˜3,7˜0.1˜9,12˜0.1˜13,17˜]hentriaconta-3(31). 4,6,9,11,13(29), 14,16-octaen-23-one]	8610	−2.1E+05	59.5 % of positive control	−0.1 % of positive control	6682	5.4E+07	46.2 % of positive control	23.4 % of positive control	Selective for Trk				
O=C(O)c1ccc(Nc2ncc3nnn(-c4cccc(F)c4)c3n2)cc1 [Compound 6]	14827	−1.8E+05	102.4 % of positive control	−0.1 % of positive control	5118	5.8E+07	35.4 % of positive control	25.2 % of positive control	Selective for GSK				
N#Cc1cnc2nc1Nc1cccc(c1)OCCNC(=O)c1cccc(c1)N2 [Compound 41, 18-Oxo-14-oxa-2,4,8,17,25-pentaazatetracyclo[17.3.1.1˜3,7˜0.1˜9,13˜]pentacosa-1(23), 3(25), 4,6,9(24), 10,12,19,21-nonaene-6-carbonitrile]	9995	5.9E+04	69.0 % of positive control	0.0 % of positive control	4455	3.4E+07	30.8 % of positive control	14.8 % of positive control	Selective for GSK				
